Patent US20090232915A1, “MIXTURES WITH A COLLAGEN SYNTHESIS BOOSTING ACTION” (SYMRISE GmbH & Co., KG, priority 2008, published 2009)
“And” between values parts separate entries of the source, which are not always exact repeats. Equal values may be shown once.

System: normal human dermal fibroblasts (NHDF)
Experiment: Collagen synthesis boosting activity, Sirius Red staining of collagen in fibroblast monolayer (96 well)
Type: cell-based
Settings: 48 h incubation
Experimental: Method for determining the collagen synthesis boosting activity of selected substances of natural or synthetic origin.
Fibroblasts are responsible for collagen synthesis in the dermis layer of the skin. The test system involves culturing normal human dermal fibroblasts (NHDF) in a “monolayer” culture in 96 well MTPs, incubating them over a defined period with test substances and then determining the increase in collagen qualitatively by a staining method.
The principle of the assay is based on histological, specific staining of the soluble collagen (predominantly type I and III collagen) with the assistance of the dye Sirius Red (Direct Red 80). Sirius Red is an anionic dye having sulfonic acid groups attached to its side chains. These sulfonic acid groups react with the side chain groups of the amino acids (proline, hydroxyproline, lysine and hydroxylysine) predominantly occurring in collagen, it being necessary for an intact collagen structure to be present.
The model used for the assay design is the procedure described in B. J. Walsh et al., Analytical Biochemistry 203, 187-190 (1992) for the quantitative determination of collagen on the 96 well scale. […]
After a 24 h adaptation phase for the NHDF, the cells are incubated (37° C., 5% CO2) for 48 h with the incubation solution and corresponding control solutions (solvent and blank). […] The absorption of the resultant dye solution can be determined photometrically at 540 nm.
Thanks to the linear relationship between collagen content and the OD values arising from staining, the increase in OD is determined for qualitative assessment of the collagen synthesis boosting effect. To this end, the mean and standard deviations of the controls and the test samples are calculated and then a background or blank correction is made. […]
The synergy index (SI) values of the ternary mixtures according to the invention were calculated according to Kull (literature: F. C. Kull et al, Applied Microbiology vol. 9, p. 538-541 (1961); D. C. Steinberg, Cosmetics & Toiletries vol. 115(11), 59-62 (2000) by means of the following equation. […]

[1] = usage concentration 1.020 mg/ml

Compound	Collagen synthesis boost [%], relative to untreated control (usage concentration 0.362 mg/ml)	Collagen synthesis boost [%], relative to untreated control [1] [%]
O=C1O[C@H]([C@@H](O)CO)C([O-])=C1OP(=O)([O-])[O-].O=C1O[C@H]([C@@H](O)CO)C([O-])=C1OP(=O)([O-])[O-].[Mg+2].[Mg+2].[Mg+2] [Magnesium ascorbyl phosphate (Bio172), Magnesium ascorbyl phosphate]	66.97% and 67.44%	–
O=C1O[C@H]([C@@H](O)CO)C([O-])=C1OP(=O)([O-])[O-].O=C1O[C@H]([C@@H](O)CO)C([O-])=C1OP(=O)([O-])[O-].[Mg+2].[Mg+2].[Mg+2] [Magnesium ascorbyl phosphate (Bio1300/1), Magnesium ascorbyl phosphate]	–	141.13
O=C1O[C@H]([C@@H](O)CO)C([O-])=C1OP(=O)([O-])[O-].[Na+].[Na+].[Na+] [Sodium ascorbyl phosphate (Bio1586), Sodium ascorbyl phosphate]	–	144.57
